Data on two compounds can be found in patent US20180008570A1, “METHOD OF TREATMENT OF A NEUROPATHIC PAIN” (CHAOYANG UNIVERSITY OF TECHNOLOGY, priority 2016, published 2018).

In experiment [1] the test system is male BALB/c mice with sciatic nerve transaction. The experiment can be described thus: Von Frey test, hindpaw withdrawal threshold in sciatic nerve transaction (SNT) neuropathic pain model. In kind it is in vivo. As to the method:
(§1) Lyophilized andrographolide powder is dissolved in DMSO and subsequently diluted to 2.86 mM (1 mg/mL) in 90% normal saline and 10% DMSO for storage. The mixture is injected into the peritoneum (body cavity) of each animal (intraperitoneal injection) based on 5 mg/kg animal weight, for example, a 30 g mouse is injected with 150 μL of saline containing 0.15 mg of andrographolide. NSAID drugs (Diclofenac sodium salt) may be purchased from Sigma (D6899), and diluted to 2.86 mM (0.91 mg/mL) in 90% saline and 10% DMSO for storage. The NSAID drugs is administered via intraperitoneal injection based on […] animal weight, for example, a 30 g mouse is injected with 165 μL of saline containing 0.15 mg of NSAID drugs. The number of molecules administered is less in andrographolide treated mouse than in NSAID drugs treated […]. These drugs are administered daily after surgery.
(§2) An operation for inducing the sciatic nerve transaction of BALB/c mice is processing as follows. After isoflurane anesthesia is applied to male BALB/c mice, which have about 8 weeks of age and have a weight of approximately 30 g, the skin of the right thigh is slit to expose the muscle. Then a blunt instrument is used to spread open the biceps femoris to expose the sciatic nerve and its three nerve branches, which are the sural nerve, common peroneal nerve and tibial nerve. Then a sterilized no. 4-0 chromium wire is used to tie the sciatic nerve, and approximately 2-4 mm of the ends of the common peroneal nerve and the tibial nerve are cut at a position near the tying position. Care is taken to avoid touching and stretching the sural nerve. The muscle and skin are closed in two separate layers. For sham surgery, the sciatic nerve is exposed as described above but no contact is made with the nerve. In this embodiment, the nerve is tied to a level such that there is slight sheathing of the nerve in order to avoid affecting the blood circulation in the area. The mice's behavior is observed after several days of rest.
(§3) The experiment is separated into the following groups that receive different treatments. In the normal group, no surgery is carried out and no andrographolide or NSAID drugs are administered to mice. In the pain group (OP-saline), saline is given to mice daily after surgery. In the control group (Op-NSAIDs), Diclofenac sodium salt is administered to mice daily after surgery. In the experimental group (Op-AP), an andrographolide compound is administered to mice daily after surgery. The means of administration is by intraperitoneal injection. The concentration of drugs for both the control group and the experimental group is 5 mg/kg animal weight, and the average animal weight is 30 g. For the model that uses an in vivo sciatic nerve transaction to simulate pathological pain, the mice behavior is tested on 3, 7, 14 days after surgery. The von Frey hair test is used to determinate the withdrawal threshold of the pathological pain.
Mechanical allodynia threshold at the lateral plantar surface of the hindpaw is assessed before nerve injury (as basal pain threshold) and then testing began on day 3 after surgery and continued for 7 and 14 days after surgery. Mechanical sensitivity is determined by measuring the withdrawal thresholds and reaction ratio to von Frey hairs (Stoelting, Wood Dale, Ill.) using the up and- down method (Dixon 1980) as described by Chaplan (Chaplan, Bach et al. 1994). Animals were placed in a plastic cage with a wire net floor and were allowed to habituate 10-15 min before testing began. Animals were also habituated over a period of 2-3 consecutive days by recording a series of baseline measurements. The filaments were applied in ascending order, each 5 times at an interval of 2-3 s to the plantar surface of the hindpaw (Bourquin, Suveges et al. 2006) and the smallest filament eliciting a foot withdrawal response is considered the threshold stimulus. […]

Experiment [2] concerns glial fibrillary acidic protein (GFAP). The experiment can be described thus: GFAP immunoreactivity in spinal cord astrocytes (L4-L6), immunohistochemical staining and quantification. Format: in vivo, mice. The following applies: 5 mg/kg i.p. daily; 7 days after surgery; compared to OP-saline group. As to the method: The following procedure is to ascertain the activity of astrocytic glial cells of the spinal cord. The mice are deeply anaesthetized with sevoflurane and perfused transcardially with saline followed by 0.1 M phosphate buffer solution containing 4% paraformaldehyde. The L4-L6 segment of spinal cord and left and right sciatic nerves are dissected out and post-fixed in a 4% parformaldehye solution at 4° C. overnight, and transferred to a series of solution of phosphate-buffered saline (PBS), graded ethanol/PBS, xylyne, graded xylyne/wax mixture, and finally embedded in wax. A rotary slicer for tissues is used to slice the sample to a transverse section with a thickness of 3 um, and warm water is used to spread and attach to the glass slice.
The wax sections are dewaxed in a series of xylene, graded xylene/ethanol mixture, or graded ethanol mixture, and finally incubation in PBS. […]
The immunoreactivity in each group is analyzed, and the intensity of chromogen staining or fluorescence is determined by photo form 4-5 independent animals. The image of the photo is analyzed using the same settings for quantitative comparison. All measured pixels in a specific area are analyzed by the ImageJ software on 0 (black) to 255 (white) scales. The total number of pixels having a value less than 50 in the photo is calculated and used to estimate the value of immunoreactivity in the area of interest.

Experiment [3] has as its system male BALB/c mice with sciatic nerve transaction. The experiment in a line: Von Frey test, withdrawal rate (reaction types II-IV) with 0.02 g and 0.07 g fibers in SNT neuropathic pain model. Format: in vivo. To be noted: 5 mg/kg i.p. daily; for withdrawal rate, von Frey fiber of 0.02 g, right hindpaw: 3, 7 and 14 days after surgery. As to the method: as §1, §2, §3
Mechanical allodynia threshold at the lateral plantar surface of the hindpaw is assessed before nerve injury (as basal pain threshold) and then testing began on day 3 after surgery and continued for 7 and 14 days after surgery. Mechanical sensitivity is determined by measuring the withdrawal thresholds and reaction ratio to von Frey hairs (Stoelting, Wood Dale, Ill.) using the up and- down method (Dixon 1980) as described by Chaplan (Chaplan, Bach et al. 1994). […]

“Also recorded” adds a separate entry of the source. Counter-ions that a name gives are not always drawn.

As for `O=C(O)Cc1ccccc1Nc1c(Cl)cccc1Cl` [NSAIDS, Diclofenac sodium salt, reference compound], the “left hindpaw withdrawal threshold (contralateral, mirror pain), persistence of higher threshold” value in experiment [1] (5 mg/kg i.p. daily, 7-14 days post-operation, compared to saline group) is “does not sustain”. Also, the “left hindpaw withdrawal threshold (contralateral, mirror pain)” value in experiment [1] (5 mg/kg i.p. daily, 3 days after surgery, compared to saline group) was “higher (although not significant)”.

On to `C=C1CC[C@@H]2[C@](C)(CO)[C@H](O)CC[C@@]2(C)[C@@H]1C/C=C1/C(=O)OC[C@H]1O` [andrographolide], for which, in experiment [2], the “GFAP immunoreactivity of the astrocytes, L4-L6 spinal area” value was “reduced trend”. For the same compound, the “right hindpaw withdrawal threshold” value in experiment [1] (5 mg/kg i.p. daily after surgery, 3, 7 and 14 days after surgery, compared to OP-saline group) was “significantly increased; also recorded: significant increase”. The “left hindpaw withdrawal threshold (contralateral, mirror pain)” value in experiment [1] (5 mg/kg i.p. daily, 3, 7 and 14 days after surgery, compared to saline group and NSAIDs group) is reported as “significantly increased”. Besides, the “right hindpaw withdrawal threshold, effect compared with NSAID drugs” value in experiment [1] (5 mg/kg i.p. daily, 3 and 14 days after surgery, vs Op-NSAIDs (Diclofenac sodium salt)) was “more significant effect”. The “degree of relief from mechanical allodynia compared with same dose of NSAID drugs” value in experiment [1] (5 mg/kg i.p. daily, overall summary) is recorded as “better”. The “withdrawal rate, von Frey fiber of 0.02 g, right hindpaw” value in experiment [3] (compared with Op-NSAID group) is on record as “very significant lower”; in experiment [3] (compared with Op-saline group), “very significant low”. Further, the results for the “withdrawal rate, fiber of 0.07 g, difference to Op-NSAID group” value in experiment [3] (7-14 days after surgery) and in experiment [3] (3 days after surgery) were “significant” and “not significant”, respectively. Also, the “withdrawal rate, fiber of 0.07 g” value in experiment [3] (compared to Op-saline group) is “reduced pain sensation”.
